The values that follow come from the Kinase Knowledgebase extract (Sharma et al. 2016).

The test system of one experiment is MAPK14 (Balb/c mice). Briefly: Inhibition of TNF-alpha Release in Balb/c Mice. The conditions noted are these: dose or concentration not given here.
The next experiment addresses MAPK14 (human) (UniProt Q16539). Briefly: Inhibition of TNF-alpha Release from PBMC.

pIC50: −log10 of the molar value.

MAPK14 (human), sequence (Q16539 whole entry, looked up): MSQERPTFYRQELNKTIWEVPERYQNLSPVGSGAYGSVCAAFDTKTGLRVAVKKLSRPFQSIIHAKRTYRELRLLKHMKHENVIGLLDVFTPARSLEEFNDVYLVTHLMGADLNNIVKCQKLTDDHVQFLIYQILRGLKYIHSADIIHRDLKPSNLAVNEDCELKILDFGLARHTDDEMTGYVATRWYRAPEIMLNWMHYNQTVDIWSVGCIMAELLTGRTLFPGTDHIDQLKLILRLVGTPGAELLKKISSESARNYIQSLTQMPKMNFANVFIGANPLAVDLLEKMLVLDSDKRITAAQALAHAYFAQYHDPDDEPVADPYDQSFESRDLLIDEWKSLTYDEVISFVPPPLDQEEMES

One may read the inhibition as the percentage by which the read-out fell short of the control. For the compound `Nc1ccn2c(-c3ccnc(NCc4ccccc4)c3)c(-c3ccc(F)cc3)nc2n1`, in the experiment with MAPK14 (Balb/c mice), the inhibition is 42%.
A word on the pIC50: it is −log10 of the IC50, conventionally taken in molar units. A low value points to a large IC50. With `CS(=O)(=O)c1nccc(-c2c(-c3ccccc3)nc3nc(N)ccn23)n1`, the pIC50 on MAPK14 (human) is 5.47.
Regarding `Nc1ccn2c(-c3ccnc(N4CCCCC4)n3)c(-c3ccccc3)nc2n1`, the pIC50 against MAPK14 (human) is 8.10. Further, the inhibition with MAPK14 (Balb/c mice) amounted to 63%.
In turn, `Nc1ccn2c(-c3ccnc4ccccc34)c(-c3ccc(F)cc3)nc2n1` showed a pIC50 against MAPK14 (human) of 6.48. The same compound registered an inhibition in the experiment with MAPK14 (Balb/c mice) of 26%.
For `Nc1ccn2c(-c3ccncc3)c(-c3ccccc3)nc2n1` the same measures were 7.26 and 100%.
`CSc1nccc(-c2c(-c3ccccc3)nc3nc(N)ccn23)n1` came in with an inhibition with MAPK14 (Balb/c mice) of 23%.
On to `C[C@H](Nc1nccc(-c2c(-c3cccc(C(F)(F)F)c3)nc3nc(N)ccn23)n1)c1ccccc1`, for which the pIC50 at MAPK14 (human) is 9.30. In the experiment on MAPK14 (Balb/c mice), the inhibition amounted to 97%.
The corresponding values for `Nc1ccn2c(-c3ccncn3)c(-c3ccc(F)cc3)nc2n1` are 6.70 and 91%.
Take `C[C@H](Nc1cc(-c2c(-c3ccc(F)cc3)nc3nc(N)ccn23)ccn1)c1ccccc1`: the inhibition with MAPK14 (Balb/c mice) was determined as 97%.
Regarding `COc1ccc(CNc2nccc(-c3c(-c4ccccc4)nc4nc(N)ccn34)n2)cc1`, the pIC50 against MAPK14 (human) is 7.85.
`COc1nccc(-c2c(-c3ccccc3)nc3nc(N)ccn23)n1`: in the experiment on MAPK14 (Balb/c mice), the inhibition came out at 87%.
Consider `CSc1nccc(-c2c(-c3cccc(F)c3)nc3nc(N)ccn23)n1`, for which the pIC50 against MAPK14 (human) was 8.00. The compound also returned an inhibition in the experiment with MAPK14 (Balb/c mice) of 51%.
For `C[C@H](Nc1nccc(-c2c(-c3ccc(F)cc3)nc3nc(N)ccn23)n1)C1CCCCC1` the same measures were 9.00 and 74%.
In turn, `Nc1ccn2c(-c3ccncc3)c(-c3cccc(F)c3)nc2n1` gave a pIC50 against MAPK14 (human) of 7.26. In addition, the inhibition with MAPK14 (Balb/c mice) is 100%.
For `CS(=O)(=O)c1nccc(-c2c(-c3cccc(C(F)(F)F)c3)nc3nc(N)ccn23)n1` the same measures were 6.28 and 10%.
As for `Nc1ccn2c(-c3ccncn3)c(-c3cccc(C(F)(F)F)c3)nc2n1`, on MAPK14 (human), the negative logarithm of the IC50 (pIC50) is 6.56. The same compound had an inhibition in the experiment with MAPK14 (Balb/c mice) of 85%.
For the compound `Nc1ccn2c(-c3ccncc3)c(-c3ccc(F)c(Cl)c3)nc2n1`, the pIC50 on MAPK14 (human) is 7.68. In the experiment with MAPK14 (Balb/c mice), the inhibition stood at 100%.
Take `CSc1nccc(-c2c(-c3ccc(F)cc3)nc3nc(N)ccn23)n1`: at MAPK14 (human), the pIC50 was 7.43. For the same compound, in the experiment on MAPK14 (Balb/c mice), the inhibition was 68%.
For `Nc1ccn2c(-c3ccncc3)c(-c3ccc(F)cc3)nc2n1` the same measures were 7.31 and 100%.
`Nc1ccn2c(-c3ccncc3)c(-c3cccc(Cl)c3)nc2n1` gave a pIC50 against MAPK14 (human) of 6.79. Besides, the inhibition in the experiment on MAPK14 (Balb/c mice) is 47%.
The corresponding values for `Nc1ccn2c(-c3ccncc3)c(-c3cccc(C(F)(F)F)c3)nc2n1` are 7.46 and 99%.
Turning to `Nc1ccn2c(-c3ccncn3)c(-c3ccccc3)nc2n1`, the inhibition in the experiment with MAPK14 (Balb/c mice) came out at 73%.
Regarding `Nc1ccn2c(-c3ccnc(NCc4ccccc4)c3)c(-c3cccc(C(F)(F)F)c3)nc2n1`, on MAPK14 (human), the pIC50 is 8.40. The same compound had an inhibition with MAPK14 (Balb/c mice) of 19%.
Compound `C[C@H](Nc1nccc(-c2c(-c3ccccc3)nc3nc(N)ccn23)n1)c1ccccc1` showed a pIC50 at MAPK14 (human) of 9.40. In the experiment on MAPK14 (Balb/c mice), this compound gave an inhibition of 100%.
For `CSc1nccc(-c2c(-c3cccc(C(F)(F)F)c3)nc3nc(N)ccn23)n1` the same measures were 7.57 and 38%.
